From the NIST ThermoML archive (doi:10.1021/je700186v)
Numbers after ± are expanded uncertainties.

Details: Crystal; visual observation

Question: Which Normal melting temperature does the source give for `C1CN2CCN1CC2` [1,4-diazabicyclo[2.2.2]octane] here?
Answer: The Normal melting temperature was 159.30 ± 1.1 °C.
